In one test the target is T1, Type-A CCK receptor (Cavia porcellus, UniProt Q63931).
T1 construct: cortex and pancreas were removed and rinsed with ice cold saline; from tissue; host or cells: guinea pig pancreas, membranes
T1 sequence (Q63931 1-430): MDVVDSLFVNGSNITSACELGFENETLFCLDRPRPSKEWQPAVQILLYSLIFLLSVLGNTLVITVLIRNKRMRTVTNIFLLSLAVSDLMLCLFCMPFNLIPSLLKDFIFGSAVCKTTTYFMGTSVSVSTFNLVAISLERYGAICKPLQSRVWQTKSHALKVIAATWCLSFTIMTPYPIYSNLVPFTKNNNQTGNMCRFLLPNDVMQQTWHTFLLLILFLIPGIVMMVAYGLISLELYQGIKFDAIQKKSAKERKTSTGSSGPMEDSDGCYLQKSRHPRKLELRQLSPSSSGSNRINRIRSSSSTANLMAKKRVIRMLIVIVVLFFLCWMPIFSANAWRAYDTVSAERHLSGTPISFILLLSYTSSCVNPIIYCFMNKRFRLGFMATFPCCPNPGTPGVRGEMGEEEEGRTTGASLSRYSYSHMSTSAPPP
Briefly: Radioligand binding, [^125 I]-BH-CCK8, Type-A CCK receptor (pancreatic membranes). Also on record: species or system guinea pig. From the text:
(§1) CCK8 [Asp-Tyr(SO3 H)-Met-Gly-Trp-Met-Asp-Phe-NH2 ] was purchased from Beckman Instruments (Palo Alto, Ca/) and Peptide International (Louisville, Ky.). Chymostatin, L-Try-Gly, puromycin, bestatin, EGTA, HEPES and BSA were purchased from Sigma Chemical Co. (St. Louis, Mo.). [^125 I]BH-CCK8 (specific activity, 2200 Ci/mmol) and Aquasol 2 scintillation cocktail were obtained from New England Nuclear (Boston, Ma.). Male guinea pigs, 250 to 325 g, were obtained from Scientific Small Animal Laboratory and Farm (Arlington Heights, Ill.). Collagenase, 300 units per mg, was purchased from Worthington (Frehold, N.J.)
(§2) 1. Guinea Pig Cerebral Cortical and Pancreatic Membrane Preparations
(§3) Cortical and pancreatic membrances were prepared as described (Lin and Miller; J. Pharmacol. Exp. Ther. 232, 775-780, 1985). In brief, cortex and pancreas were removed and rinsed with ice cold saline. Visible fat and connective tissues were removed from the pancreas. Tissues were weighed and homogenized separately in approximately 25 mL of ice-cold 50 mM Tris-HCl buffer, pH 7.4 at 4° C., with a Brinkman Polytron for 30 sec, setting 7. The homogenates were centrifuged for 10 min at 1075×g and pellets were discarded. The supernatants were saved and centrifuged at 38,730×g for 20 min. The resultant pellets were rehomogenized in 25 mL of 50 mM Tris-HCl buffer with a Teflon-glass homogenizer, 5 up and down strokes. The homogenates were centrifuged again at 38,730×g for 20 min. Pellets were then resuspended in 20 mM HEPES, containing 1 mM EGTA., 118 mM NaCl, 5 mM MgCl2, 100 microM bestatin, 3 microM phosphoramidon, pH 7.4 at 22° C., with a Teflon-glass homogenizer, 15 up and down strokes. Resuspension volume for the cortex was 15-18 mL per gm of original wet weight and 60 mL per gm for the pancreas.
(§4) ^125 I]Bolton-Hunter CCK8, and test compounds were diluted with HEPES-EGTA-salt buffer (see above) containing 0.5% bovine serum albumin (BSA). To 1 mL Skatron polystyrene tubes were added 25 microliters of test compounds, 25 miroliters of [^125 I]BH-CCK8, and 200 microliters of membrane suspension. The final BSA concentration was 0.1%. The cortical tissues were incubated at 30° C. for 150 min and pancreatic tissues were incubated at 37° C. for 30 min. Incubations were terminated by filtration using Skatron Cell Harvester and SS32 microfiber filter mats. The specific binding of [^125 I]BH-CCK8, defined as the difference between binding in the absence and presence of 1 microM CCK8, was 85 90% of pancreas. IC50 's were determined from the Hill analysis.

Another test has as its system guinea pig acini. Briefly: Inhibition of CCK8-stimulated amylase release from acini. The class given is cell-based. The settings on record: Cavia porcellus, 0.5 h, CCK8 3×10^-10 M, 37° C., 30 min. The method, then:
Protocol for Amylase This assay was performed using the modified protocol of Lin et al., J. Pharmacol. Exp. Ther. 236, 734, 1986. 1. Guinea Pig Acini Preparation Guinea pig acini were prepared by the method of Bruzzone et al. (Biochem. J. 226, 621-624, 1985) as follows. Pancreas was dissected out and connective tissues and blood vessels were removed. The pancreas was cut into small pieces (2mm) by a scissor and placed in a 15 mL conical plastic tube containing 2.5 mL of Krebs Ringer HEPES (KRH) buffer plus 400 units per mL of collagenase. The composition of the KRH buffer was: HEPES, 12.5 mM: NaCl, 118 mM; KCI, 4.8 mM; CaCl2, 1 mM; […]; MgSO4, 1.2 mM; NaHCO3, 5 mM; glucose, 10 mM, pH 7.4. The buffer was supplemented with MEM vitamins, 1% MEM amino acids and 0.001% aprotinin. The tube was shaken by hand until the suspension appeared homogeneous, usually 5 to 6 min. 5 mL of the KRH, without collagenase and with 0.1% BSA, were added and the tube was centrifuged at 50×g for 35 sec. The supernatant was discarded and 6 mL of the KRH were added to the cell pellet. […] This wash procedure was repeated once. The cell pellet from the last centrifugation step was then resuspended in 15 mL of KRH containing 0.1% BSA. The contents were filtered through a dual nylon mesh, size 275 and 75 micrometers. The filtrate, containing the acini, were centrifuged at 50×for 3 min. The acini were then resuspended in 5 mL of KRH-BSA buffer for 30 min at 37° C., under 100% O2, with a change of fresh buffer at 15 min. 2. Amylase Assay After the 30 min incubation time, the acini were resuspended in 100 volumes of KRH-BSA buffer, containing 3 microM phosphoramidon and 100 microM bestatin. […] The final assay volume was 500 microliters. Tubes were vortexed and placed in a 37° C. water bath, under 100% O2, for 30 min. Afterward, tubes were centrifuged at 10,000 g for 1 min. […] The results of this assay are […]

A further test has as its target T2, Type-B CCK receptor (Cavia porcellus, UniProt H0VZC5).
T2 construct: cortex and pancreas were removed and rinsed with ice cold saline; from tissue; host or cells: guinea pig cerebral cortex, membranes
T2 sequence (H0VZC5 1-426): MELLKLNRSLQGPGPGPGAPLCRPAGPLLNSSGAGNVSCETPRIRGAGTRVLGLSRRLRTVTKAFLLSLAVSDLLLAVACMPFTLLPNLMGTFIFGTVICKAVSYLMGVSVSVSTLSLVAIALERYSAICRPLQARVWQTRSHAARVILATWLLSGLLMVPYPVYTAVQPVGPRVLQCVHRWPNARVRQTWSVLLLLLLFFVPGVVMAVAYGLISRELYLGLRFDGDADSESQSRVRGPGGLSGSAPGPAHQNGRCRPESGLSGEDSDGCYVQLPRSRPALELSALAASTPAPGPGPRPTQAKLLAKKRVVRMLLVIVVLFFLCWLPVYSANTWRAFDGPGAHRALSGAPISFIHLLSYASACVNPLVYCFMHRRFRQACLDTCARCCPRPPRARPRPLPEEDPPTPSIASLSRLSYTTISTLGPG
Kind of test: Radioligand binding, [^125 I]-BH-CCK8, Type-B CCK receptor (cerebral cortical membranes). More on the design: species or system guinea pig.
Excerpt: as §1, §2, §3
as §4, with “The specific binding of [^125 I]BH-CCK8, defined as the difference between binding in the absence and presence of 1 microM CCK8, was 85 90% of pancreas.” left out

The test system of another test is CCK8. Kind of test: Inhibition of CCK induced gastric emptying (charcoal meal). The settings on record: 100 mg/kg p.o., CCK8 80 micrograms/kg s.c. The format is in vivo. The method, then:
Inhibition Of CCK Induced Gastric Emptying
Three fasted mice were dosed (p.o.) with the test compound. CCK8 (80 micrograms/kg s.c.) was administered within 60 minutes and charcoal meal (0.1 mL of 10% suspension) was given orally 5 minutes later. The animals were sacrificed within an additional 5 minutes.
Gastric emptying, defined as the presence of charcoal within the intestine beyond the pyloric sphincter, is inhibited by CCK8. Gastric emptying observed in more than 1 or 3 mice (greater than 1) indicates antagonism of CCK8.

[1] abbreviates: guinea pig pancreatic membranes, 37° C., 30 min, IC50 from Hill analysis.

Structures can show the parent of a compound that is named as a salt. Where two headings read alike, the source gives them in different places.

Usually IC50 stands for the point on the concentration scale where inhibition reaches its midpoint. A lower IC50 goes with inhibition by little substance. Regarding `CCCCCN(CCCCC)C(=O)[C@@H](CCC(=O)O)NC(=O)c1cc2ccccc2[nH]1` [Example 4, N-(2,-Indolylcarbonyl)-R-Glu-N^α,N^α -di-n-pentylamide], the IC50 on Type-A CCK receptor came out at 20 nM; in the test with guinea pig acini, 22 nM.
With `CCCCCN(CCCCC)C(=O)[C@H](CCC(=O)O)NC(=O)c1cc2ccccc2[nH]1` [Example 8, N-(2'-Indolylcarbonyl)-S-Glu-N^α,N^α -di-n-pentylamide], the IC50 came out at 200 nM on Type-A CCK receptor (setting [1]) and 590 nM in the test on guinea pig acini.
For the compound `CCCCCN(CCCCC)C(=O)[C@@H](CCC(=O)O)NC(=O)c1c[nH]c2ccccc12` [Example 12, N-(3'-Indolylcarbonyl)-R-Glu-N^α,N^α -di-n-penylamide], the IC50 at Type-A CCK receptor (setting [1]) is 260 nM; at Type-B CCK receptor, 3200 nM; in the test with guinea pig acini, 830 nM.
Consider `CCCCCN(CCCCC)C(=O)[C@@H](CCC(=O)O)NC(=O)c1cnc2ccccc2c1` [Example 15, N-(3'-Quinolylcarbonyl)-R-Glu-N^α,N^α -di-n-pentylamide], for which the IC50 on Type-A CCK receptor is 5.4 nM; on Type-B CCK receptor it was 3500 nM; in the test on guinea pig acini, 16 nM.
As to `CCCCCN(CCCCC)C(=O)[C@@H](CC(=O)O)NC(=O)c1cc2ccccc2[nH]1` [Example 19, N-(2'-Indolylcarbonyl)-R-Asp-N^α,N^α -di-n-pentylamide], the half-inhibitory concentration (IC50) at Type-A CCK receptor was found to be 27 nM; on Type-B CCK receptor, 2600 nM; with guinea pig acini it was 55 nM.
The matching figures for `CCCCCN(CCCCC)C(=O)[C@@H](CCC(=O)OC)NC(=O)c1cc2ccccc2[nH]1` [Example 23, N-(2'-Indolylcarbonyl)-(γ-methyl ester)-R-Glu-di-n-pentylamide]: 98 nM, 3600 nM and 1300 nM.
The matching figures for `O=C(O)CC[C@@H](NC(=O)c1cc2ccccc2[nH]1)C(=O)N(Cc1ccccc1)Cc1ccccc1` [Example 29, N-(2'-Indolylcarbonyl)-R-Glu-N^α,N^α -dibenzylamide]: 30 nM, 5100 nM and 130 nM.
The corresponding values for `CCCCCN(CCCCC)C(=O)[C@@H](CCC(=O)O)NC(=O)c1ccc2ncccc2c1` [Example 34, N-(6'-Quinolylcarbonyl)-R-Glu-N^α,N^α -d-n-pentylamide] are 30 nM, about 10000 nM and 53 nM.
`O=C(O)CC[C@@H](NC(=O)c1cc2ccccc2[nH]1)C(=O)N(c1ccccc1)c1ccccc1` [Example 74, N-(2'-Indolylcarbonyl)-R-Glu-N^α,N^α -diphenylamide]: the IC50 on Type-A CCK receptor is 210 nM; at Type-B CCK receptor, 2000 nM; with guinea pig acini, 1200 nM.
On to `CCOC(=O)CN(CC(=O)OCC)C(=O)[C@@H](CCC(=O)O)NC(=O)c1cc(O)c2cccc(O)c2n1` [Example 109, N-(4',8'-Dihydroxyquinolyl-2-carbonyl)-R-Glutamyl-bis(carboethoxymethyl)amide], for which the IC50 is 56 nM on Type-A CCK receptor (setting [1]) and 620 nM at Type-B CCK receptor (guinea pig cerebral cortical membranes, 30° C., 150 min, IC50 from Hill analysis).
For `CCCCCN(CCCCC)C(=O)[C@@H](CCC(=O)O)NC(=O)c1cnc2ccccc2c1` [Example 118, N-(3'-Quinolylcarbonyl)-R-Glu-N^α,N^α -di-n-pentylamideDicyclohexylamine salt], the “Gastric emptying observed (mice out of three; more than 1 indicates antagonism of CCK8)” value in the test with CCK8 is “three out of three”.

These data come from patent US5128346A, “Derivatives of D-glutamic acid and D-aspartic acid” (priority 1990, dated 1992).
